US12552753B2, “Methods and compositions for targeting Tregs using CCR8 inhibitors” (Nanjing Immunophage Biomedical Co., Ltd., priority 2020, dated 2026)
Where a name gives a salt, the structure may show the parent alone.

molecular target: CCR8 (Homo sapiens, UniProt P51685); experiment: Tango assay (Tango-CCR8-Gal4-CHO-K1 cells, CCL1-stimulated, ONE-Glo luminescence); conditions: Tango Assay IC50, Inhibition of CCR8 Tango cell in vitro
Sequence (P51685 whole entry, the tested form may be a part): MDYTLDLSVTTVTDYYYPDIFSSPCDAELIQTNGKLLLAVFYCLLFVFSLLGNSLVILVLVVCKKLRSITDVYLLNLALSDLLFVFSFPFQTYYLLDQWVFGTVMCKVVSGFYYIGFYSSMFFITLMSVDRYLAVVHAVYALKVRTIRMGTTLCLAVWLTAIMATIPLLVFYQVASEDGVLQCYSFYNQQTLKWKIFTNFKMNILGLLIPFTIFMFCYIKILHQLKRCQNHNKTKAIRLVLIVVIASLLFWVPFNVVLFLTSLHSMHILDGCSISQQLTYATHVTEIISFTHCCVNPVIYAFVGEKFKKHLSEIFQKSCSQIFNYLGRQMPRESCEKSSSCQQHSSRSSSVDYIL

Row | IC50 [nM] | Structure (SMILES)
1 | 1140 | Cc1ccccc1C(=O)Nc1ccc(S(=O)(=O)NC(C)c2cccc(N)c2)c2ccccc12 (stereo not shown) [Compound 72A, N-(4-(N-(1-(3-aminophenyl)ethyl)sul-famoyl)naphthalen-1-yl)-2-methylbenzamide hydrochloride]
2 | 133 | Cc1ccccc1C(=O)Nc1ccc(S(=O)(=O)NC(C)CC2CCNCC2)c2ccccc12 (stereo not shown) [Compound 126, 2-methyl-N-(4-(N-(1-(piperidin-4-yl)propan-2-yl)sulfamoyl)naphtha-len-1-yl)benzamide]
3 | > 100000 | Cc1cc(S(=O)(=O)NC(C)C(C)(C)CN(C)C)ccc1NC(=O)c1ccccc1C (stereo not shown) [Compound 294, N-(4-(N-(4-(dimethylamino)-3,3-dimethylbutan-2-yl)sulfamoyl)-2-methylphenyl)-2-methylbenzamide hydrochlroide, hydrochloride]
4 | 1100 | Cc1ccccc1C(=O)Nc1ccc(S(=O)(=O)NC(C)C2CCN(C(=O)OC(C)(C)C)C2)c2ccccc12 (stereo not shown) [Compound 65, tert-butyl 3-(1-(4-(2-methylbenzamido)naph-thalene-1-sulfonamido)ethyl)pyr-rolidine-1-carboxylate]
5 | 914 | Cc1cc(S(=O)(=O)N[C@H](C)C2CCN(C(=O)OC(C)(C)C)CC2)c(F)cc1NC(=O)c1ccccc1C [Compound 174, (R)-tert-butyl 4-(1-(2-fluoro-5-methyl-4-(2-methylbenzamido)phen-ylsulfonamido)ethyl)pi-peridine-1-carboxylate]
6 | 366 | Cc1ccccc1NC(=O)c1ccc(S(=O)(=O)N[C@H](C)C2CCN(C)CC2)cc1C [Compound 222, (R)-2-methyl-4-(N-(1-(1-methylpiperidin-4-yl)ethyl)sulfamoyl)-N-(o-tolyl)benzamide]
7 | 843 | Cc1cc(S(=O)(=O)NC(C)C2CCOCC2)ccc1NC(=O)c1ccccc1C (stereo not shown) [Compound 239, 2-methyl-N-(2-methyl-4-(N-(1-(tetrahydro-2H-pyran-4-yl)ethyl)sulfamoyl)phen-yl)benzamide]
8 | 50 | Cc1cc(S(=O)(=O)N[C@H](C)C2CCN(C)CC2)ccc1NC(=O)c1c(C)cccc1F [Compound 270, (R)-2-fluoro-6-methyl-N-(2-methyl-4-(N-(1-(1-methylpiperidin-4-yl)ethyl)sulfamoyl)phenyl) benzamide]
9 | 673 | Cc1ccccc1C(=O)Nc1ccc(S(=O)(=O)N[C@H](C)C2CCN(C(=O)OC(C)(C)C)CC2)cc1C(F)(F)F [Compound 185, (R)-tert-butyl 4-(1-(4-(2-methylbenzamido)-3-(trifluoromethyl)phenyl-sulfonamido)ethyl)piper-idine-1-carboxylate]
10 | 12 | Cc1ccccc1C(=O)Nc1cc(Cl)c(S(=O)(=O)N[C@H](C)C2CCNCC2)cc1Cl [Compound 243A, (R)-N-(2,5-dichloro-4-(N-(1-(piperidin-4-yl)ethyl)sulfamoyl)phen-yl)-2-methylbenzamide hydrochloride]
11 | 4.6 | Cc1cc(S(=O)(=O)N[C@H](C)C2CCN(C)CC2)ccc1NC(=O)C12CCC(CC1)CC2 [Compound 295, (R)-N-(2-methyl-4-(N-(1-(1-methylpiperidin-4-yl)ethyl)sulfamoyl)phenyl)bicyclo [2.2.2]oct-ane-1-carboxamide]
12 | 685 | CCOC(=O)C(C)(C)C(C)NS(=O)(=O)c1ccc(NC(=O)c2ccccc2C)c(C)c1 (stereo not shown) [Compound 232, ethyl 2,2-dimethyl-3-(3-methyl-4-(2-methylbenzamido)phenylsulfonamido) butanoate]
13 | 19 | Cc1ccccc1C(=O)Nc1ccc(S(=O)(=O)NC2CCCc3ccccc32)c2ccccc12 (stereo not shown) [Compound 28, 2-methyl-N-(4-(N-(1,2,3,4-tetrahydronaphthalen-1-yl)sulfamoyl)naphtha-len-1-yl)benzamide]

The next lines start with the compound.

Row | Structure (SMILES) | IC50 [nM]
14 | Cc1ccccc1C(=O)Nc1ccc(S(=N)(=O)NC(C)C2CCCCC2)c2ccccc12 (stereo not shown) [Compound 123, N-(4-(N-(1-cyclohexylethyl)sulfamimidoyl)naphthalen-1-yl)-2-methylbenzamide] | 3.4
15 | Cc1cc(S(=O)(=O)N[C@H](C)C2CCNCC2)ccc1NC(=O)c1ccc(F)cc1C [Compound 258A, (R)-4-fluoro-2-methyl-N-(2-methyl-4-(N-(1-(piperidin-4-yl)ethyl)sulfamoyl)phenyl)benzamide hydrochloride] | > 100000
16 | Cc1ccccc1C(=O)Nc1ccc(S(=O)(=O)Nc2ccc3c(c2)C(N(C)C(=O)CN(C)C)CCC3)c2ccccc12 (stereo not shown) [Compound 97, N-(4-(N-(8-(2-(dimethylamino)-N-methylacetamido)-5,6,7,8-tetrahydronaphthalen-2-yl)sulfamoyl)naphthalen-1-yl)-2-methylbenzamide] | > 10000
17 | Cc1ccccc1C(=O)Nc1ccc(S(=O)(=O)Nc2ccc3c(c2)CN(C(=O)CN(C)C)C3)c2ccccc12 [Compound 37, N-(4-(N-(2-(2-(dimethylamino)acetyl)isoindolin-5-yl)sulfamoyl)naphthalen-1-yl)-2-methylbenzamide] | > 10000
18 | CN1CCCN(C(=O)C23CC(NS(=O)(=O)c4ccc5ccccc5c4)(C2)C3)CC1 [Compound 100, N-(3-(4-methyl-1,4-diazepane-1-carbonyl)bicyclo[1.1.1]pentan-1-yl)naphthalene-2-sulfonamide] | > 10000
19 | Cc1cc(S(=O)(=O)NC(C2CCNCC2)C2CC2)ccc1NC(=O)c1ccccc1C (stereo not shown) [Compound 225A, N-(4-(N-(cyclopropyl (piperidin-4-yl)methyl)sulfamoyl)-2-methylphenyl)-2-methylbenzamide] | 25
20 | Cc1ccccc1C(=O)Nc1ccc(S(=O)(=O)NC(C)C2CCCN(C(=O)[C@H](C)N)C2)c2ccccc12 (single isomer, unassigned) [Compound 158A] | 1500
21 | CC(NS(=O)(=O)c1ccc2c(c1)C(=O)NCC2)C1CC2CCC1CC2 (stereo not shown) [Compound 134, N-(1-(bicyclo[2.2.2]octan-2-yl)ethyl)-1-oxo-1,2,3,4-tetrahydroisoquinoline-7-sulfonamide] | > 10000
22 | Cc1cc(S(=O)(=O)N[C@H](C)C2CCNCC2)c(F)cc1NC(=O)c1ccccc1C [Compound 175, (R)-N-(5-fluoro-2-methyl-4-(N-(1-(piperidin-4-yl)ethyl)sulfamoyl)phen-yl)-2-methylbenzamide] | 26
23 | Cc1ccccc1NC(=O)c1ccc(S(=O)(=O)N[C@H](C)C2CCN(C(=O)OC(C)(C)C)CC2)cc1C [Compound 112, (R)-tert-butyl 4-(1-(3-methyl-4-(o-tolylcarbamoyl)phenyl-sulfonamido)ethyl)piperi-dine-1-carboxylate] | > 10000
24 | Cc1ccccc1C(=O)Nc1ccc(S(=O)(=O)Nc2ccc3c(c2)N(CCN(C)C)CC3)c2ccccc12 [Compound 33, N-(4-(N-(1-(2-(dimethylamino)ethyl)indolin-6-yl)sulfamoyl)naphthalen-1-yl)-2-methylbenzamide] | > 10000
25 | CN(C)CCN1CCOc2cc(NS(=O)(=O)c3ccc4ccccc4c3)ccc2C1=O [Compound 280, N-(4-(2-(dimethylamino)ethyl)-5-oxo-2,3,4,5-tetrahydrobenzo[f][1,4]oxazepin-8-yl)naphthalene-2-sulfonamide] | > 100000
26 | Cc1ccccc1C(=O)Nc1ccc(S(=O)(=O)NC(C)C2CCCN(C(=O)[C@H](C)NC(=O)OC(C)(C)C)C2)c2ccccc12 (single isomer, unassigned) [Compound 157A] | > 10000
27 | Cc1ccccc1C(=O)Nc1ccc(S(=O)(=O)N[C@H](C)C2CCNCC2)c(C)c1Cl [Compound 245A, (R)-N-(2-chloro-3-methyl-4-(N-(1-(piperidin-4-yl)ethyl)sulfamoyl)phen-yl)-2-methylbenzamide hydrochloride] | > 100000
28 | Cc1cc(S(=O)(=O)N[C@H](C)C2CCN(C3CCCC3)CC2)ccc1NC(=O)c1ccccc1C [Compound 247, (R)-N-(4-(N-(1-(1-cyclopentylpiperidin-4-yl)ethyl)sulfamoyl)-2-methylphenyl)-2-methylbenzamide] | 1
29 | CC(NS(=O)(=O)c1ccc2c(c1)C(=O)NCCC2)C1CC2CCC1CC2 (stereo not shown) [Compound 135, N-(1-(bicyclo[2.2.2]octan-2-yl)ethyl)-1-oxo-2,3,4,5-tetrahydro-1H-benzo[c]azepine-8-sulfonamide] | > 10000
30 | COC(=O)CN1CCC([C@@H](C)NS(=O)(=O)c2ccc(NC(=O)c3ccccc3C)c(C)c2)CC1 [Compound 248, methyl(R)-2-(4-(1-((3-methyl-4-(2-methylbenzamido)phenyl)sulfonamido)ethyl)piperidin-1-yl)acetate] | 105
31 | Cc1ccccc1C(=O)Nc1cc(Cl)c(S(=O)(=O)N[C@H](C)C2CCN(C)CC2)cc1Cl [Compound 306, (R)-N-(2,5-dichloro-4-(N-(1-(1-methylpiperidin-4-yl)ethyl)sulfamoyl)phenyl)-2-methylbenzamide hydrochloride] | 6
32 | Cc1ccccc1C(=O)Nc1ccc(S(=O)(=O)N[C@H](C)C2CCN(C(=O)OC(C)(C)C)CC2)cc1Cl [Compound 164, (R)-tert-butyl 4-(1-(3-chloro-4-(2-methylbenzamido)phen-ylsulfonamido)ethyl)piper-idine-1-carboxylate] | > 10000
33 | Cc1cc(S(=O)(=O)NC(C)C2CC3CCC2CC3)ccc1NC(=O)c1ccccc1C (stereo not shown) [Compound 162, N-(4-(N-(1-(bicyclo[2.2.2]octan-2-yl)ethyl)sulfamoyl)-2-methylphenyl)-2-methylbenzamide] | 5
34 | Cc1cc(S(=O)(=O)N[C@H](C)C2CCNCC2)ccc1NC(=O)C12CCC(CC1)CC2 [Compound 309, hydrochloride] | 10
35 | Cc1ccccc1C(=O)Nc1ccc(S(=O)(=O)NC(CO)C2CCCCC2)c2ccccc12 (stereo not shown) [Compound 48, N-(4-(N-(1-cyclohexyl-2-hydroxyethyl)sulfamoyl)naphthalen-1-yl)-2-methylbenzamide] | 170
36 | Cc1ccccc1C(=O)Nc1ccc(S(=O)(=O)NC2CCNc3ccccc32)c2ccccc12 (stereo not shown) [Compound 30, 2-methyl-N-(4-(N-(1,2,3,4-tetrahydroquinolin-4-yl)sulfamoyl)naphthalen-1-yl)benzamide] | 73
37 | Cc1ccccc1C(=O)Nc1ccc(S(=O)(=O)NC2CCC(C(=O)N(C)C)CC2)c2ccccc12 (stereo not shown) [Compound 45, N-(4-(N-(4-(dimethylcarbamoyl)cy-clohexyl)sulfamoyl)naph-thalen-1-yl)-2-methylbenzamide] | 2700
